Reference: US8551721B2, “Bioluminescent detection of cyanohydroxy benzothiazole compounds” (Promega Corporation, priority 2008, dated 2013)

How the values were obtained:
UGT isozymes = settings: cited from earlier work
[1] = tested on: UGT activity in human liver microsomes (HLM); test: Inhibition of UGT activity in human liver microsomes by diclofenac (titration), probe compound 3138; format: biochemical; settings: 0.1 mg/mL HLM, 50 μM compound 3138, 15 minutes at 37° C.; read-out: EC50, inhibition of HLM utilization of compound 3138
Method: The invention includes a method of determining activity of the uridine 5′-diphospho-glucuronosyltransferase (UDP-glucuronosyltransferase, or UGT) family enzymes in vitro. Briefly, UGT enzymes from overexpressed insect microsomes (Supersomes™, BD Gentest™) or animal tissue microsomes (Xenotech, BD Gentest™) were incubated with a cyanobenzothiazole substrate of the invention and the cofactor UDP-glucuronic acid (UDPGA) at 37° C. in buffer at physiological pH containing MgCl2 and alamethicin (typically, 50 mM TES, pH 7.5, 8 mM MgCl2, 4 mM UDPGA (Sigma) and 25 μg/mL alamethicin (Sigma)). […]
(§1) During this incubation, the cysteine reacts with the cyanobenzathiozole substrate to yield a D-luciferin derivative. […] Therefore, activity of the UGT enzyme can be measured by analyzing the difference (lower or no output) in relative light units (RLU) of a sample in which glucuronidation occurs compared to a sample that was run under the same conditions with no added UDPGA cofactor.
All reactions contained 50 mM TES, pH 7.5, 8 mM MgCl2, 25 μg/mL alamethicin, 0.1 mg/mL HLM, and 50 μM compound 3138, plus or minus 4 mM UDPGA. […] After 20 minutes at room temperature, RLU were read on a luminometer.

UGT 1A1 = target: T1, UGT 1A1 (Homo sapiens, UniProt P22309); test: Inhibition of recombinant UGT 1A1 supersomes by diclofenac, probe compound 3138; format: biochemical; settings: 0.1 mg/mL Supersomes, 20 μM compound 3138, 90 minutes at 37° C.
T1 construct: purchased BD Gentest; host or cells: insect cells (microsomes)
T1 sequence (P22309 26-533): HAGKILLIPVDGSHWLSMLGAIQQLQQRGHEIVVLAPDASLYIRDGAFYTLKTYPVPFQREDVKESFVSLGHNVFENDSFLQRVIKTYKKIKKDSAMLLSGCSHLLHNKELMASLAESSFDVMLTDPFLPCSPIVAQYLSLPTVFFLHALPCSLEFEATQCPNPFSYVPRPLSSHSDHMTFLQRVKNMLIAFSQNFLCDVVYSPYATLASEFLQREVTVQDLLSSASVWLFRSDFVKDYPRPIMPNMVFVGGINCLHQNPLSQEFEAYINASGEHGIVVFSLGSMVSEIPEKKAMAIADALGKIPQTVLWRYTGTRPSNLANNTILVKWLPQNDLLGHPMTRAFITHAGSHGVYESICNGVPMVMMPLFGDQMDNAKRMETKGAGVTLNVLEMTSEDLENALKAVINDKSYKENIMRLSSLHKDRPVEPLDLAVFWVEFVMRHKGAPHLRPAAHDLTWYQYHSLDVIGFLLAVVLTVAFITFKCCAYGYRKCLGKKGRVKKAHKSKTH
Method: The invention includes a method of determining activity of the uridine 5′-diphospho-glucuronosyltransferase (UDP-glucuronosyltransferase, or UGT) family enzymes in vitro. […] Following the UGT enzyme reaction, an equal volume of P450-Glo Luciferin Detection Reagent (Promega) containing 15-30 mM D-cysteine-HCl.H2O (Sigma) was added and the plate was mixed and incubated at room temperature, typically for 20-30 minutes. P450-Glo Luciferin Detection Reagent can be prepared by dissolving a vial of Promega Luciferin Detection Reagent (Promega Part #V859B) with a vial of Promega P450-Glo Buffer (Promega Part #V865B).
as §1

In the case of `O=C(O)Cc1ccccc1Nc1c(Cl)cccc1Cl` [Diclofenac], the “Isozymes Modulated” value (UGT isozymes; isozymes currently reported in the literature to be modulated by the compound) is listed as “Inhibits most isozymes”, the “inhibition of UGT isozymes as reported in the literature” value (UGT isozymes; literature report) is listed as “reported to inhibit UGT 1A1, 1A3, 1A6, 1A7, 1A8, 1A9, 1A10, 2B7, 2B15, and 2B17” and the EC50 [1] is listed as 60 µM. For the same compound, the IC50 (UGT 1A1) was 232 µM.
